Assay results reported in ChEMBL document CHEMBL1157539, “Thousands of chemical starting points for antimalarial lead identification” (Nature, 2010).

Test system: Plasmodium falciparum
Test: GSK_TCMDC: Inhibition of Plasmodium falciparum 3D7 in whole erythrocytes, using parasite LDH activity as an index of growth.
Assay type: functional, organism-based
Settings: Plasmodium falciparum, 3D7

Compound	XC50 [nM]
COCCN1CCC(N(Cc2ccc(-c3ccc(OC(F)(F)F)cc3)cc2)C(=O)Cn2c(CCc3cccc(F)c3F)cc(=O)c3ccccc32)CC1	1210
NCCCNc1ccnc2cc(Cl)ccc12	305
CC(=O)Nc1ccc(OCCCCN(Cc2ccccc2C(F)(F)F)c2ccc(C#N)c(C(F)(F)F)c2)c(Cl)c1	981
Cc1ccc(NC(=O)c2ccc3ncccc3c2)cc1OC1CCN(CCC(C)C)C1 (centres undefined)	351
Cc1cc(N2CCCC2)nc(NC(=N)Nc2cccc(C(F)(F)F)c2)n1	315
O=C(Nc1cccc(C(F)(F)F)c1)c1cccc(S(=O)(=O)NC2CCN(CC3CCCCC3)C2)c1 (centres undefined)	588
Cc1[nH]c(C)c(-c2ccc(-c3ccc(F)cc3)nc2)c(=O)c1Br	248
Cc1cccc2nc(-c3ccc(-c4ccc(CNCc5ccc(S(C)(=O)=O)cc5)cc4)cc3)[nH]c12	752
O=C(Nc1ccc(O)c(-c2nc3ccccc3[nH]2)c1)c1ccc([N+](=O)[O-])cc1	318
Cc1cccc2[nH]c(-c3cc(-c4cn[nH]c4)cnc3N)nc12	221
O=C(NCCCCN1CCC(O)(c2ccc(Cl)cc2)CC1)c1ccc(Br)cc1	1250
CCCCCN(C(=O)Nc1cc(C(F)(F)F)cc(C(F)(F)F)c1)C(C)c1nc2ccccc2c(=O)n1CC (centres undefined)	787
Oc1cc2c(cc1CN1CCN(Cc3ccccc3F)CC1)CCC2	761
CC(C(=O)N1CCCC1)N1CCN(C(c2ccccc2)c2ccccc2)CC1 (centres undefined)	1100
COCCNCc1ccc(-c2cccc(CN(C(=O)NCCc3ccccc3)C3CCN(Cc4ccccc4)CC3)c2)cc1	918
CC1CCN(c2nc(C(=O)Nc3cccc4c3CCCC4)c(C(C)C)s2)CC1	1040
CCC(=O)c1ccc(-c2ccc(=O)n(CC(=O)N(CCN(CC)CC)Cc3ccc(-c4ccc(C(F)(F)F)cc4)cc3)n2)cc1	715
CCn1ncc(Cl)c1CN(C)S(=O)(=O)c1ccc2ccccc2c1	818
CS(=O)(=O)c1ccc(-c2cnc(N)c(-c3cccc(O)c3)c2)cc1	695
COc1cc(Nc2ccnc3ccc(C(C)(C)C)cc23)cc(OC)c1OC	610
O=C(NC1CC1)c1cnc(N2CCCC(c3ccccc3)C2)c(Cl)c1 (centres undefined)	797
CC(C)CNCc1cccc(-c2cccc(CN(CCN(C)C)C(=O)Nc3ccccc3)c2)c1	795
CCOc1cc(C=NNc2nc(C)cc(-n3nc(C)cc3C)n2)ccc1O	1080
COc1ccc(Nc2nccc(NCCNC(=O)c3cc4ccccc4s3)n2)cc1	1020
Cc1[nH]c2ccccc2c1C1=CCN(CCN2CCCc3c(Br)cccc3C2=O)CC1	659

Compound	XC50 [nM]
Nc1c(Cl)cc(C(O)CNCCCCCCCCCc2ccccn2)cc1Cl (centres undefined)	863
COc1ccc(C(=O)CC(=O)c2ccc(OC)cc2OC)c(OC)c1	300
CCOc1ccc(CCCON2C(=N)N=C(N)NC2(C)C)cc1	3.2
Cc1nnsc1C(=O)Nc1cccc(-c2ccc(-c3nc4ccccc4[nH]3)cc2)c1	870
O=C(Cn1cc(C=C2SC(=NC3CCCC3)N(C3CCCC3)C2=O)c2ccccc21)N1CCCC1	297
CNC(=O)/C=C/c1cc(NC(=O)Nc2ccnc3c(Br)cccc23)ccc1OC	864
COc1ccc(COc2c(OC)cc(Cc3cnc(N)nc3N)cc2OC)cc1	912
CC(C)C1=NC(=O)c2cc([N+](=O)[O-])ccc2CN1	149
N#Cc1ccc(CN2CCC(Oc3ccc(NC(=O)c4cccs4)cc3)C2)cc1 (centres undefined)	953
O=C(NCCCCCN1CCC(c2c[nH]c3ccccc23)CC1)Nc1ccc(Br)cc1	925
Fc1c(CNCC2CCN(CC3CCCCC3)CC2)cccc1C(F)(F)F	900
COc1ccc(OC)c2c1CCN(C)C2Cc1cccc2ccccc12 (centres undefined)	1050
O=C(Nc1cccc(C(F)(F)F)c1)Nc1ccc(F)c([N+](=O)[O-])c1	696
CCN(CC)CCCC(C)Nc1c(-c2ccc(Br)cc2)cnc2ccccc12 (centres undefined)	703
CCCCCCn1c(Sc2ccc(C#N)c([N+](=O)[O-])c2)nnc1-c1ccccc1	772
O=C(Cc1cccc(Cl)c1)Nc1cccc(-c2c[nH]c3nc(Nc4cccc(OCc5ccccc5)c4)ncc23)c1	1040
CCc1ccc(NC(=O)c2ccc(CN3CCCN(CCC(C)C)CC3)cc2)cc1	632
O=C(NC1CCCCN(Cc2ccccc2O)C1)c1cccc(C(F)(F)F)c1 (centres undefined)	795
CN(CCCNC(=S)NC12CC3CC(CC(C3)C1)C2)CCCNc1ccnc2cc(Cl)ccc12	121
COc1cccc(NC(=O)c2cc(C(=O)Nc3cccc(OC)c3)cc([N+](=O)[O-])c2)c1	661
CCOC(=O)c1cc(C(=O)NCCCCN2CCC(c3ccc4c(c3OC)CCCC4)CC2)ccc1-c1ccc(C(F)(F)F)cc1	707
CC[C@H]1CN2CC[C@H]1C[C@@H]2[C@@H](O)c1cc(Cl)nc2ccc(OC)cc12	63.5
COc1cccc2c(NN=Cc3ccccc3F)ccnc12	941
CCOC(=O)c1ccc(Nc2cc(Nc3ccc(C(=O)OCC)cc3)nc(C)n2)cc1	907
CC(C)(C)[C@@H](Nc1ccc(C#N)c2ccccc12)C(=O)NC1(Cc2ccc(O)cc2)CCCC1	1440

Compound	XC50 [nM]
CCCCN(CCCC)CCOc1cc2c(cc1OC)CCN2C(=O)/C=C/c1ccccc1Cl	1180
COc1cccc(NC(=O)Nc2cc(C)nc3ccccc23)c1	723
CC(C)c1ccc(NC(=O)c2ccc(C(=O)NC3CCN(Cc4ccccc4)CC3)cc2)cc1	982
O=C(Cn1c(=O)cnc2ccccc21)Nc1cccc(C(=O)Nc2cccc(C(F)(F)F)c2)c1	277
CCc1nc(N)nc(N)c1-c1ccc(F)cc1	407
N=C(N)NC(=O)Nc1ccc([N+](=O)[O-])c(Cl)c1	880
CCOc1ccc(C(=O)Nc2cc(Br)c3c(c2)CNCC3)cc1Br	990
Nc1oc2c(CN3CCCCCC3)c(O)ccc2c(=O)c1-c1nc2ccccc2s1	516
CC(C)(C)c1ccc(CNC(=O)c2cc(CNC3CCNC3)ccc2O)cc1 (centres undefined)	805
Cc1ccc(CN2CCCN(Cc3cccc(NC(=O)c4cc5ccccc5s4)c3)CC2)cc1	1190
CN(C)CCN(C)Cc1ccc(-c2ccc(NC(=O)c3cccc(C#N)c3)cc2)cc1	1270
CCCNCc1ccc(-c2ccc(CN(CCOC)C(=O)c3cccc(C#N)c3)cc2)nc1	1230
COc1cccc2cc(C(=O)N[C@@H](CC(C)C)C(=O)Nc3cc(F)ccc3Br)oc12	965
O=C(Nc1cccc(CN2CCCN(CCc3ccccc3)CC2)c1)c1cc2ccccc2s1	1130
Cc1ccc(O)cc1Nc1ccnc2ccc(C(C)(C)C)cc12	1250
CCN1CC=C(c2c[nH]c3ccccc23)CC1	1030
O=C(NCCCCCN1CCC(c2c[nH]c3ccccc23)CC1)c1ccc(-c2cccnc2)cc1	1030
Cc1ccc(O)cc1Nc1ccnc2cc(-c3ccc(CN4CCCCC4)o3)ccc12	166
Cn1cnc(CCNC(=O)c2cccc(-c3ccc(-c4nc5cc(F)ccc5[nH]4)cc3)c2)c1	941
Cc1nc(SCC(=O)N2CCCC2=O)c2c(C)c(C)sc2n1	170
CN(C)c1cccc(-c2cnc3ccc(NCc4cccc(Cl)c4)nn23)c1	700
C[C@@H]([C@@H](CCCCc1ccccc1)C(=O)N[C@H](C(=O)Nc1cccnc1)C(C)(C)C)N(O)C=O	929
COc1ccc(CCNCc2cc3c(C(C)(C)C)nn(-c4ccc(Cl)cc4)c3[nH]c2=O)cc1OC	148
CCN(CCNC(=O)C1CCN(c2cc(-c3cccc(C)c3)ncn2)CC1)Cc1ccccc1	171
